Molecular target: human Nav1.7 (Homo sapiens (Human), UniProt Q15858)
Experiment: FLIPR sodium dye assay (CoroNa Green AM Na+ dye, primary fluorescence assay)
Type: cell-based
Details: recombinant Nav1.7/HEK293 cells
Experimental: In vitro assays were performed in a recombinant cell line expressing cDNA encoding the alpha subunit (Nav1.7, SCN9a, PN1, NE) of human Nav1.7 (Accession No. NM_002977). The cell line was provided by investigators at Yale University (Cummins et al, J. Neurosci. 18(23): 9607-9619 (1998)). For dominant selection of the Nav1.7-expressing clones, the expression plasmid co-expressed the neomycin resistance gene. The cell line was constructed in the human embryonic kidney cell line, HEK293, under the influence of the CMV […] promoter, and stable clones were selected using limiting dilution cloning and antibiotic selection using the neomycin analogue, G418. Recombinant beta and gamma subunits were not introduced into this cell line. Additional cell lines expressing recombinant Nav1.7 cloned from other species can also be used, alone or in combination with various beta subunits, gamma subunits or chaperones.
Unless otherwise noted, cell culture reagents were purchased from Mediatech of Herndon, Va. The recombinant Nav1.7/HEK293 cells were routinely cultured in growth medium consisting of Dulbecco's […] essential medium containing 10% fetal bovine serum (FBS, Hyclone, Thermo Fisher Scientific, Logan, Utah), 100 U/mL penicillin, 100 μg/mL streptomycin, 2-4 mM L-glutamine, and […] G418. For natural, non-recombinant cell lines, the selective antibiotic was omitted, and additional media formulations can be applied as needed.
The final buffer consisted of 20 mM Hepes, pH 7.3, 1.261 mM CaCl2, 0.493 mM MgCl2, 0.407 mM Mg(SO)4, 5.33 mM KCl, 0.441 mM KH2PO4, 137 mM NaCl, 0.336 mM Na2HPO4 and […] D-glucose (Hanks et al., Proc. Soc. Exp. Biol. Med. 71:196 (1949)), and the simple formulation was typically the basic buffer throughout the assay (i.e., all wash and addition steps).
The fluorescence indicator used in the primary fluorescence assay was the cell permeant version of CoroNa™ Green (Invitrogen, Molecular Probes, Eugene, Oreg.), a dye that emits light in the fluorescence range (Harootunian et al., J. Biol. Chem. 264(32):19458-19467 (1989)). The intensity of this emission, but not the wavelength range, is increased when the dye is exposed to Na^+ ions, which it can bind with partial selectivity. Cells expressing Nav1.7 or other sodium channels were loaded with the CoroNa™ Green dye immediately in advance of the fluorescence assay, and then, after agonist stimulation, the mobilization of Na^+ ions was detected as the Na^+ ions flowed from the extracellular fluid into the cytoplasm through the activated sodium channel pores. The dye was stored in the dark as a lyophilized powder, and then an aliquot was dissolved immediately before the cell loading procedure, according to the instructions of the manufacturer, to a stock concentration of 10 mM in DMSO. It was then diluted in the assay buffer to a 4× concentrated working solution, so that the final concentration of dye in the cell loading buffer was 5 μM.
In the fluorescence assays, two agonists were used in combination, namely 1) veratridine; and 2) the venom from the yellow scorpion, Leiurus quinquestriatus hebraeus. Veratridine is an alkaloid small molecule that facilitates the capture of channel openings by inhibiting inactivation, and the scorpion venom is a natural preparation that includes peptide toxins selective for different subsets of voltage-gated sodium channels. These scorpion toxins inhibit the fast inactivation of their cognate target channels. Stock solutions of the agonists were prepared to 40 mM in DMSO (veratridine) and 1 mg/mL in dH2O (scorpion venom), and then diluted to make a 4× or 2× stock (depending on the particular assay) in assay buffer, the final concentration being 100 μM (veratridine) and 10 μg/mL (scorpion venom). Both of the agonists were purchased from Sigma Aldrich, St. Louis, Mo.
Test compounds were dissolved in DMSO to yield 10 mM stock solutions. […]

human Nav1.7, sequence (Q15858 other isoform, or with tags, fused parts or gaps): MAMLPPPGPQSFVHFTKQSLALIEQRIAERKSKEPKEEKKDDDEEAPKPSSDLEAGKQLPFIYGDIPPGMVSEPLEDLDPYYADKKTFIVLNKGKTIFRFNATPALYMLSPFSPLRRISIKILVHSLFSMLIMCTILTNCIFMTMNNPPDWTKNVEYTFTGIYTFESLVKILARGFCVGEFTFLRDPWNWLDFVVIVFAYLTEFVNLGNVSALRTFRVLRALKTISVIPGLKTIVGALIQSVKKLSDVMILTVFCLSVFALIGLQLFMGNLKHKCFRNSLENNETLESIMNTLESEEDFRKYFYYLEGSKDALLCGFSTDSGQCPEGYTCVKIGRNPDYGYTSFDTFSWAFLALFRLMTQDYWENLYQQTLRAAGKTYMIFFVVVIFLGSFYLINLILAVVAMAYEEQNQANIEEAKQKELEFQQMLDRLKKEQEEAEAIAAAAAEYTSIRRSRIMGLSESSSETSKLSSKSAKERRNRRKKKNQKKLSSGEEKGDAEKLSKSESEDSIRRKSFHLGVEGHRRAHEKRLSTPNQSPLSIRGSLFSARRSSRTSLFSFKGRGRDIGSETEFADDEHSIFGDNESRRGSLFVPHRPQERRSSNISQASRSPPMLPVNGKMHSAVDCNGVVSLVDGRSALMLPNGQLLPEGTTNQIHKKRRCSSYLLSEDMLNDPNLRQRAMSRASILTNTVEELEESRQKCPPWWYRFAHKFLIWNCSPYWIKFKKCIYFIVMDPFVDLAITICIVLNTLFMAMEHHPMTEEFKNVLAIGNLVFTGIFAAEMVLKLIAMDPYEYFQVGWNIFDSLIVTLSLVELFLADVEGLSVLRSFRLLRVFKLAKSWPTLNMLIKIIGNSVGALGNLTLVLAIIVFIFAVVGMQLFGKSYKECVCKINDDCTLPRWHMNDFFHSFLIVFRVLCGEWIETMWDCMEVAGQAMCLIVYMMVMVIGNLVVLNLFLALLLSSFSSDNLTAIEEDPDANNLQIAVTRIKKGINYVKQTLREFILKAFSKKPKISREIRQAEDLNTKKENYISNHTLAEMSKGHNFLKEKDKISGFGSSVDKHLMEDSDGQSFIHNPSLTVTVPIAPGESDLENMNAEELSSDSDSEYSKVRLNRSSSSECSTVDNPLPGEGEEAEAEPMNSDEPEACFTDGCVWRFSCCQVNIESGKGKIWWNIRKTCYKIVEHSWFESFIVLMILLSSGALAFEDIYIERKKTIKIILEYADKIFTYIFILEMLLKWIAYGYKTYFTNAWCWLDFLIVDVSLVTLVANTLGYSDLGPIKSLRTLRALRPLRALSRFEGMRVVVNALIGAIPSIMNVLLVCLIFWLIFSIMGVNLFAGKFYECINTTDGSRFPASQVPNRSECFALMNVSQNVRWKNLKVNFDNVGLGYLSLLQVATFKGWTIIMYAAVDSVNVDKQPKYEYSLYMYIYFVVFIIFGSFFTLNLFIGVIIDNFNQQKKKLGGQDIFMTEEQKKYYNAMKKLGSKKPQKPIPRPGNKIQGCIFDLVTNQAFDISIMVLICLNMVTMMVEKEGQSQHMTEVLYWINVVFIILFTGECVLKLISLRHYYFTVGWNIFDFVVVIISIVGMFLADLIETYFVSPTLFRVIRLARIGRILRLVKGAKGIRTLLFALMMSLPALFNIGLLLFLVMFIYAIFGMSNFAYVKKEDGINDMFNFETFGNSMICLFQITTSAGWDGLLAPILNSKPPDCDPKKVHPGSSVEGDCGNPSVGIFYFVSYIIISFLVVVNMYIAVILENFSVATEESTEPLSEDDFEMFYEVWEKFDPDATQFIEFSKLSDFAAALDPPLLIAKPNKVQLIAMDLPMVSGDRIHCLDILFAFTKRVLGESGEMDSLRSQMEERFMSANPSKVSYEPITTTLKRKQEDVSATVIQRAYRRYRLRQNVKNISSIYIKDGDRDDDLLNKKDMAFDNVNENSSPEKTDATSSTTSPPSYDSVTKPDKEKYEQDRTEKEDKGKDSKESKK

| SMILES | IC50 [µM] |
| --- | --- |
| NC(=O)c1cccc(-c2ccc(Oc3ccc(C(F)(F)F)cc3C(O)C[N+](=O)[O-])cc2)n1 (centres unmarked) [compound 63, 6-(4-(2-(1-hydroxy-2-nitroethyl)-4-(trifluoromethyl)phenoxy)-phenyl)picolinamide] | 0.337 ± 0.056 |
| NCC(O)c1cc(C(F)(F)F)ccc1Oc1ccc(-c2cccc(C(N)=O)n2)cc1 (centres unmarked) [compound 64, 6-(4-(2-(2-amino-1-hydroxy-ethyl)-4-(trifluoromethyl)-phenoxy)phenyl)picolinamide] | 2.14 ± 0.199 |
| O=C1CN(Cc2cc(C(F)(F)F)ccc2Oc2ccc(-c3cccc([C@H](O)CO)n3)cc2)CCN1 [compound 74, (S)-4-(2-(4-(6-(1,2-dihydroxyethyl)pyridin-2-yl)phenoxy)-5-(trifluoro-methyl)benzyl)piperazin-2-one] | 0.672 ± 0.059 |
| OC[C@@H](O)c1cccc(-c2ccc(Oc3ccc(C(F)(F)F)cc3CN3CC[C@H](O)C3)cc2)n1 [compound 75, (S)-1-(6-(4-(2-(((S)-3-hydroxypyrrolidin-1-yl)methyl)-4-(trifluoromethyl)phenoxy)-phenyl)pyridin-2-yl)ethane-1,2-diol] | 0.972 ± 0.114 |
| NC(=O)c1cccc(-c2ccc(Oc3ccc(C(F)(F)F)cc3[C@@H](O)CO)cc2)n1 [compound 77, (R)-6-(4-(2-(1,2-dihydroxyethyl)-4-(trifluoromethyl)-phenoxy)phenyl)picolinamide] | 2.45 ± 0.344 |
| NC(=O)c1cccc(-c2ccc(Oc3ccc(C(F)(F)F)cc3C(O)CN3CCNC(=O)C3)cc2)n1 (centres unmarked) [compound 79, 6-(4-(2-(1-hydroxy-2-(3-oxopiperazin-1-yl)ethyl)-4-(trifluoromethyl)phenoxy)phenyl) picolinamide] | > 20 |
| NC(=O)c1cccc(-c2ccc(Oc3ccc(C(F)(F)F)cc3C(C(N)=O)N3CCCCC3)cc2)n1 (centres unmarked) [compound 82, 6-(4-(2-(2-amino-2-oxo-1-(piperidin-1-yl)ethyl)-4-(trifluoromethyl)phenoxy)phenyl) picolinamide] | 2.72 ± 0.264 |
| CCCNC(C(N)=O)c1cc(C(F)(F)F)ccc1Oc1ccc(-c2cccc(C(N)=O)n2)cc1 (centres unmarked) [compound 83, 6-(4-(2-(2-amino-2-oxo-1-(propylamino)ethyl)-4-(trifluoromethyl)phenoxy)phenyl) picolinamide] | 6.05 ± 1.33 |
| N#Cc1cc(-c2cccc(C(N)=O)n2)ccc1Oc1ccc(F)cc1 [compound 89] | > 20 |
| NC(=O)c1cccc(-c2ccc(Oc3ccc(F)cc3)c(C(F)(F)F)c2)n1 [compound 90, 6-(4-(4-fluorophenoxy)-3-(trifluoromethyl)phenyl)picolin-amide] | > 20 |
| NC(=O)c1cccc(-c2ccc(Oc3ccc(F)cc3)cc2C(F)(F)F)n1 [compound 91, 6-(4-(4-fluorophenoxy)-2-(trifluoromethyl)phenyl)picolin-amide] | 0.577 ± 0.056 |
| CN(Cc1cc(-c2cccc(C(N)=O)n2)ccc1Oc1ccc(F)cc1)c1ccc(C(=O)O)cc1 [compound 93, 4-((5-(6-carbamoylpyridin-2-yl)-2-(4-fluorophenoxy)benzyl)-(methyl)amino)benzoic acid] | > 20 |
| NC(=O)c1cccc(-c2ccc(Oc3ccc(F)cc3)c(COc3ccc(Cl)cc3I)c2)n1 [compound 94, 6-(3-((4-chloro-2-iodophenoxy)methyl)-4-(4-fluorophenoxy)phenyl) picolinamide] | > 20 |
| CCN(CC)Cc1cc(-c2cccc(C(N)=O)n2)ccc1Oc1ccc(F)cc1 [compound 95, 6-(3-((diethylamino)methyl)-4-(4-fluorophenoxy)phenyl) picolinamide] | 1.33 ± 0.209 |
| CCOCc1cc(-c2cccc(C(N)=O)n2)ccc1Oc1ccc(F)cc1 [compound 96, 6-(3-(ethoxymethyl)-4-(4-fluorophenoxy)phenyl) picolinamide] | 1.13 ± 0.11 |
| NC(=O)c1cccc(-c2ccc(Oc3ccc(F)cc3)c(CN3CCCC3)c2)n1 [compound 97, 6-(4-(4-fluorophenoxy)-3-(pyrrolidin-1-ylmethyl)phenyl)-picolinamide] | 4.24 ± 0.919 |
| NC(=O)c1cccc(-c2ccc(Oc3ccc(F)cc3)c(-c3nn[nH]n3)c2)n1 [compound 101, 6-(4-(4-fluorophenoxy)-3-(2H-tetrazol-5-yl)phenyl)picolinamide] | 1.83 ± 0.383 |
| COCc1cc(-c2cccc(C(N)=O)n2)ccc1Oc1ccc(F)cc1 [compound 103, 6-(4-(4-fluorophenoxy)-3-(methoxymethyl)phenyl)picolin-amide] | 0.312 ± 0.008 |

Other lines, results leading:

| IC50 [µM] | SMILES |
| --- | --- |
| 0.31 ± 0.066 | NC(=O)c1cccc(-c2ccc(Oc3ccc(C(F)(F)F)c(CN4CC(N)C4)c3)cc2)n1 [compound 62, 6-(4-(3-((3-aminoazetidin-1-yl)methyl)-4-(trifluoromethyl)phenoxy)phenyl) picolinamide] |
| 0.862 ± 0.012 | NCc1cc(C(F)(F)F)ccc1Oc1ccc(-c2cccc(C(N)=O)n2)cc1 [compound 65, 6-(4-(2-(aminomethyl)-4-(trifluoromethyl)phenoxy)phenyl) picolinamide] |
| 0.71 ± 0.0008 | NC(=O)c1cccc(-c2ccc(Oc3ccc(C(F)(F)F)cc3C(C(N)=O)N3CCCC3)cc2)n1 (centres unmarked) [compound 81, 6-(4-(2-(2-amino-2-oxo-1-(pyrrolidin-1-yl)ethyl)-4-(trifluoromethyl)phenoxy)phenyl) picolinamide] |
| 10 to 20 | CN(C)C(C(N)=O)c1cc(C(F)(F)F)ccc1Oc1ccc(-c2cccc(C(N)=O)n2)cc1 (centres unmarked) [compound 84, 6-(4-(2-(2-amino-1-(dimethylamino)-2-oxoethyl)-4-(trifluoromethyl)phenoxy)phenyl) picolinamide] |
| 0.561 ± 0.024 | CCN(CC)C(C(N)=O)c1cc(C(F)(F)F)ccc1Oc1ccc(-c2cccc(C(N)=O)n2)cc1 (centres unmarked) [compound 85, 6-(4-(2-(2-amino-1-(diethylamino)-2-oxoethyl)-4-(trifluoromethyl)phenoxy)phenyl) picolinamide] |
| 0.49 ± 0.041 | NC(=O)c1cccc(-c2ccc(Oc3ccc(F)cc3)cc2Cl)n1 [compound 86, 6-(2-chloro-4-(4-fluorophenoxy)-phenyl)picolinamide] |
| 0.128 ± 0.03 | NC(=O)c1cccc(-c2ccc(Oc3ccc(F)cc3)c(Cl)c2)n1 [compound 87, 6-(3-chloro-4-(4-fluorophenoxy)-phenyl)picolinamide] |
| > 20 | CN(c1ccccc1)c1cc(-c2cccc(C(N)=O)n2)ccc1Oc1ccc(F)cc1 [compound 92, 6-(4-(4-fluorophenoxy)-3-(methyl(phenyl)amino)phenyl) picolinamide] |
| 0.961 ± 0.07 | NC(=O)c1cccc(-c2ccc(Oc3ccc(F)cc3)c(CN3CCOCC3)c2)n1 [compound 98, 6-(4-(4-fluorophenoxy)-3-(morpholinomethyl)phenyl)picolin-amide] |
| 0.55 ± 0.057 | NC(=O)c1cccc(-c2ccc(Oc3ccc(F)cc3)cc2F)n1 [compound 99, 6-(2-fluoro-4-(4-fluorophenoxy)-phenyl)picolinamide] |
| 0.276 ± 0.063 | NC(=O)c1cccc(-c2ccc(Oc3ccc(F)cc3)c(-c3ccc(Cl)cc3)c2)n1 [compound 100, 6-(4′-chloro-6-(4-fluorophenoxy)-[1,1′-biphenyl]-3-yl)picolinamide] |
| 1.3 ± 0.126 | CN(Cc1cc(-c2cccc(C(N)=O)n2)ccc1Oc1ccc(F)cc1)c1ccccc1 [compound 102, 6-(4-(4-fluorophenoxy)-3-((methyl(phenyl)amino)methyl)phenyl)picolinamide] |
| > 20 | NC(=O)c1cccc(-c2ccc(Oc3ccc(F)cc3)c(COc3ccc(F)cc3)c2)n1 [compound 104, 6-(4-(4-fluorophenoxy)-3-((4-fluorophenoxy)methyl)phenyl) picolinamide] |
| 0.362 ± 0.095 | N#Cc1ccc(OCc2cc(-c3cccc(C(N)=O)n3)ccc2Oc2ccc(F)cc2)cc1 [compound 105, 6-(3-((4-cyanophenoxy)methyl)-4-(4-fluorophenoxy)phenyl)picolinamide] |

From patent US10005768B2, “Carboxamide derivatives and use thereof” (Purdue Pharma L.P., priority 2013, dated 2018)
